In publication PMC11489250, “Optimized methods for measuring competitive binding of chemical substances to thyroid hormone distributor proteins transthyretin and thyroxine binding globulin” (Archives of Toxicology, 2024):
Like-named read-outs stand apart in the source and are kept apart here.

Key:
TBG [1] = conditions: calculated by Ki = 1/binding constant; ref Cao et al. [2011]; read-out: TBG literature Ki; cited from earlier work
[2] = molecular target: T1, thyroxine-binding globulin (TBG) (Homo sapiens, UniProt P05543); assay: Competitive TBG-binding assay with FITC-T4 (fluorescence polarization readout)
T1 construct: purchased Bio-rad Laboratories, Inc. (Veenendaal, The Netherlands)
T1 sequence (P05543 21-415): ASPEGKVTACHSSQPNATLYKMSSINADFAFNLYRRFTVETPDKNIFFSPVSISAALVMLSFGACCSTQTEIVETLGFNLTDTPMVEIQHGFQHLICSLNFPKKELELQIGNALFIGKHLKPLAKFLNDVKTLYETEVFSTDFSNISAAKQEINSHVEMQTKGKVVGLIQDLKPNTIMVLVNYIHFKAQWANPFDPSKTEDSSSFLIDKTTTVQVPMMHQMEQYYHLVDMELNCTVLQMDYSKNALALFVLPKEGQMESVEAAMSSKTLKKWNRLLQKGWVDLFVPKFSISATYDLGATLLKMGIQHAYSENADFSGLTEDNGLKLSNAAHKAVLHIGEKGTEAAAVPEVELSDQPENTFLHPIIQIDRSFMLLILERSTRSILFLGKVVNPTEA
Procedure: Prepared plates were first shaken for 5 min and then incubated for 15 min at room temperature before being analysed by the microplate reader at FP mode (CLARIOstar Plus, BMG LABTECH).
Accordingly, dilution series of all compounds were prepared in DMSO. First, 24 µL Tris–HCl buffer was pipetted to the wells, followed by 1 µL of the compound stock solution. […] Solvent (DMSO) concentrations in all conditions were 1%. The plates were shaken for 5 min on a plate shaker, followed by an incubation for 15 min at room temperature.
The adjusted polarization was set to a reference value of 35 mP. The adjustment gain values ranged from 1900 to 2200. The plate layout of TBG-binding assay is provided in Supplementary Information file (Section 4).
For the competitive TBG-binding experiments, concentration–response curves were fitted:2 r=rmin+rmax-rmin/1+IC50/X^HillSlope with rmin and rmax being the minimum and maximum anisotropy values, respectively. X is the concentration of added competitor. Equations that were used for the calculation of the ICX and Ki values in the TTR-binding assays (Supplementary Information, Section 3) were also used to determine the ICX and Ki values in TBG-binding assays without any changes, respectively. The single Kd, IC20, IC50 and Ki were determined based on replicates (n) in each experiment, and then the average and confidence intervals were determined based on the Kd, IC20, IC50 and Ki values from sperate experiments (N).
Alternatively, another approach to determine ICX, Kd and Ki values based on a theoretical model of ligand–protein binding biochemistry was taken as described in detail in the Supplementary Information file (Section 5). For this approach, R was used to fit the model to the data. The results obtained from the two approaches were compared in Section 3.4.
S5.2 Ki and IC50 estimation

TTR = conditions: calculated by Ki = 1/binding constant; ref Cao et al. [2011]; read-out: TTR literature Ki; cited from earlier work
TBG [3] = test system: TBG; parameters: method as in Marchesini et al. [2006]; conditions: highest concentration tested 10 µM; ref Marchesini et al. [2006]; cited from earlier work
Recombinant TTR = test system: Recombinant TTR; parameters: method as in Marchesini et al. [2006]; conditions: highest concentration tested 10 µM; ref Marchesini et al. [2006]; cited from earlier work
Human TTR = molecular target: T2, Human TTR (Homo sapiens, UniProt P02766); assay: Optimized competitive TTR-binding assay with FITC-T4 (fluorescence intensity readout)
T2 construct: Transthyretin (prealbumin, TTR) >95% from human plasma; purchased Sigma Aldrich (Zwijndrecht, The Netherlands); host or cells: human plasma
Procedure: All TTR-binding experiments were performed in black 96-well polystyrene nonbinding plates. Experimental wells and background wells were prepared in triplicate per plate. […] Fluorescence intensity (FI) was measured at λex = 485 ± 20 nm and λem = 528 ± 20 nm (CLARIOstar Plus microplate reader, BMG LABTECH).
To test the effect of the change in temperature and incubation time, a saturation experiment (N = 3, n = 3) was performed in Tris–HCl buffer (0.1 M Tris (Thermo Scientific, Rockford, USA), 0.1 M NaCl (Merck KGaA, Darmstadt, Germany), 1 mM EDTA (VWR International, B.V. Amsterdam, The Netherlands); pH 8.0). […] Two 96-well plates were prepared at the same time. After shaking for 5 min on a plate shaker, one prepared plate was incubated on ice (at 4 °C) and another plate was incubated at room temperature (22 °C). For both plates the fluorescence was measured at different time points: 5 min, 15 min, 60 min and 120 min.
First, 48 µL Tris–HCl buffer (pH 8.0) was pipetted to the wells, followed by 2 µL of the compound (in DMSO). […] Final solvent (DMSO) concentrations in all conditions amounted to 1%. All plates were shaken for 5 min on a plate shaker, followed by an incubation for 15 min at room temperature. The standard operation procedure (SOP) is provided in Supplementary Information file (Section 3).
Calculations of the ICX, Kd and Ki values of TTR-binding assays are described in the Supplementary Information file (Section 3).
3.7.5 The competitive TTR binding screening assay
3.7.8 Processing data to determine IC50 and calculate Ki value

[4] = T4EQi = highest human blood concentration x T4-REPi

Ki ([2]; 5 nM FITC-T4, 10 nM TBG, RT, 15 min, derived from IC20, descriptive model (Graphpad), average [95% CI], read-out: TBG Ki): 16.8 µM
IC50 ([2]; 5 nM FITC-T4, 10 nM TBG, RT, 15 min, descriptive model (Graphpad), average [95% CI]): 172 µM
IC20 ([2]; 5 nM FITC-T4, 10 nM TBG, RT, 15 min, descriptive model (Graphpad), average [95% CI], read-out: TBG IC20): 32.6 µM
IC20 ([2]; 5 nM FITC-T4, 10 nM TBG, RT, theoretical model in R, average [95% CI], read-out: TBG IC20, theoretical model): 35.7 µM
Ki ([2]; 5 nM FITC-T4, 10 nM TBG, RT, theoretical model in R, average [95% CI], read-out: TBG Ki values, theoretical model): 18.4 µM
Relative potency compared to T4 (T4-REP), TBG-binding assay ([2]; T4-REPi = IC20(T4)/IC20(i)): 0.0003
T4EQ concentration (TBG binding) [2, 4]: 0.023 nM
Contribution to T4EQ concentration (TBG binding) ([2]; mixture of highest human blood concentrations of TBBPA, triclosan and BPA): 1.1%
IC20 (Human TTR; 110 nM FITC-T4, 30 nM TTR, RT, 15 min, average [95% CI], read-out: TTR IC20): 14.7 µM
IC50 (Human TTR; 110 nM FITC-T4, 30 nM TTR, RT, 15 min, average [95% CI], read-out: TTR IC50): 63.1 µM
Ki (Human TTR; 110 nM FITC-T4, 30 nM TTR, RT, 15 min, derived from IC20, average [95% CI], read-out: TTR Ki): 32.1 µM
Relative potency compared to T4 (T4-REP), TTR-binding assay (Human TTR; T4-REPi = IC20(T4)/IC20(i)): 0.002
T4EQ concentration (TTR binding) (Human TTR; [4]): 0.16 nM
Contribution to T4EQ concentration (TTR binding) (Human TTR; mixture of highest human blood concentrations of five model compounds): 0.8%
SMILES: CC(C)(c1ccc(O)cc1)c1ccc(O)cc1 [BPA, bisphenol-A]
Ki (TBG [1]): 1.7 µM
Ki (TTR): 3.23 µM
competitive binding to TBG (in words) (TBG [3]): no competitive binding
competitive binding to TTR (in words) (Recombinant TTR): no competitive binding
